{
  "source": "patent US20250025440A1",
  "about": "“COMPOSITIONS AND METHODS FOR MANAGEMENT OF HUMAN PAPILLOMA VIRUS-ASSOCIATED CANCERS” (LOMA LINDA UNIVERSITY, priority 2021, published 2025)",
  "format_in_all_cases": "cell-based",
  "key": {"SCC19 (HPV-)": {"test_system": "SCC19 (HPV-)", "test": "Colony formation assay", "settings": "SCC19, treated 24 hours", "protocol": "(§1) For assessing the long-term effects on the survival of cells following GA-OH treatment, the colony formation assay (CFA) was performed. Two cell lines, SCC19 (HPV^−) and SCC104 (HPV^+) were used for this study. The cells were treated for 24 hours with GA-OH, and then seeded for assessment of colony formation. Cell survival data from this study mirrored the impact of GA-OH on cell viability of HPV^+ and HPV^− cell lines. […] FIG. 7C is a graphical representation of the effects of GA-OH on the clonogenicity of the surviving fractions of HPV^+ versus HPV^− cell lines.\n(§2) Sub-confluent monolayer cells were treated with different doses of GA-OH for 24 hours. Cells were trypsinized and re-suspended before re-plating into 6 well plates in DMEM or MEM at 500-1000 cell densities, depending on the cell line. Cells were then allowed to grow for 10-20 days, depending on the cell line, before fixing and staining. A mixture of methanol/acetic acid was used for fixing, followed by 0.5% crystal violet staining. Plates were imaged using UV imager, and colonies with more than […] counted using image J. Surviving fractions were determined by dividing the number of colonies by the number of cells seeded as a product of the corresponding plating efficiency. Survival fractions curves were plotted using GraphPad Prism."}, "SCC104 (HPV+)": {"test_system": "SCC104 (HPV+)", "test": "Colony formation assay", "settings": "SCC104, treated 24 hours", "protocol": "as §1, §2"}, "[1]": {"test_system": "HPV- (SCC19, SCC29) and HPV+ (SCC47, SCC104, SCC152) HNSCC cell lines", "test": "Sensitization of HNSCC cell lines to photon radiation", "settings": "radiation 0-4Gy followed by inhibitor; DER10", "experimental": "The dose enhancement ratio for 10% survival (DER10) was calculated as follows: DER10=(Dose correlated with 10% survival fraction in radiation-treated cells)/(Dose correlated with 10% survival fraction in radiation and inhibitor treated cells).\nCCDP, Cetuximab, and GA-OH were evaluated for their ability to sensitize HNSCC cell lines to photon radiation.\nColonies were counted after 14-21 days and normalized to vehicle control and survival analysis was performed.\nSensitization of an additional HPV^+ cell line to radiation by CDDP, Cetuximab and GA-OH was evaluated."}, "SCC47 (HPV+)": {"test_system": "SCC47 (HPV+)", "test": "Cell cycle analysis after irradiation (PI flow cytometry)", "settings": "SCC47, radiation (4Gy) followed by GA-OH, 24 hours", "protocol": "Cells were treated with radiation (4Gy) followed by GA-OH before cell cycle analysis was performed using propidium iodide (PI) flow cytometry assay after 24 hours. FIGS. 15A-15B are graphical representations of the cell cycle analysis of SCC47 and SCC19 cell lines after irradiation and followed by treatment with control or with GA-OH, as measured by flow cytometry assays after 24 hours. In both cell lines, G2-M is the most affected stage of cell cycle and there is increase in G2-M arrested cells. The HPV^+ cell line—SCC47 has a higher proportion of cells that are still arrested in G2-M phase after 24 hours compared to the HPV^− cell line—SCC19. FIGS. 16A-16B are graphical representations of the fraction of G2-M arrested cells in SCC47 and SCC19 lines after irradiation and followed by treatment with control or with GA-OH, as measured by flow cytometry assays after 24 hours. […]\nKinetics of G2-M arrest when SCC47 and SCC19 are irradiated with or without GA-OH. […] FIGS. 17A-17B are graphical representations of the kinetics of G2-M arrest when SCC47 and SCC19 are irradiated and followed by treatment with control or with GA-OH, as measured by flow cytometry assays after 24 hours. […] Apoptosis analysis of SCC47 and SCC19 was performed after irradiation and followed by treatment with control or with GA-OH, as measured by flow cytometry assays after 24 hours. […]"}, "[2]": {"test_system": "HPV+ (SCC47, SCC090, SCC104, SCC152) and HPV- (SCC19, SCC29, SCC49, SCC84) HNSCC cell lines", "test": "MTT cell viability, HNSCC panel", "protocol": "While SAR studies using the SCC104 cell line provided evidence of the activity of the analogs, further studies were conducted to assess not just the potency, but also the selectivity. As a step towards that goal, the efficacy of GA-OH was evaluated in a panel containing both HPV^+ and HPV^− HNSCC cell lines using MTT cell viability assays. Four HPV^+ cell lines (SCC47, SCC090, SCC104, SCC152) and four HPV^− cell lines (SCC19, SCC29, SCC49, SCC84) were utilized. GA-OH behaved dose dependently in cell lines both with or without HPV. […] FIGS. 7A-7C are graphical representations of the sensitivity of HPV^+ cell lines and HPV^− cell lines to GA-OH-mediated growth inhibition. FIG. 7A is a graphical representation of the cell growth inhibition of HNSCC HPV^+ and HPV^− cell lines by GA-OH (+ and closed shapes represent HPV^+ cell lines and − and open shapes the HPV^− cell lines). […] These cells were good controls, as HPV is an established causative agent in CC carcinogenesis. Two HPV^+ cell lines, SiHa and CaSki were selected as the positive controls and the Saos-2 cell line was used as an HPV-negative control. […] FIG. 7B is a graphical representation of the cell growth inhibition of cervical cancer HPV^+ and HPV^− cell lines by GA-OH. HPV^+ cell lines display higher sensitivity than do HPV^− cell lines as shown by the leftwards shift of the HPV^+ curves (SCC47, 90, 104, 152 in FIG. 7A and SiHa and CaSki in FIG. 7B).\nAll working concentrations were diluted in PBS to the desired concentration before use. To test the effect of gambogic acid and/or its derivatives on cell viability, all cell lines were seeded at 2×10^4 per well in 96-well plates and allowed to adhere overnight. Various concentrations of the analogues were added and the cells incubated at 37° C. for 24 hr. Viability was then measured using the MTT assay, performed as described previously. […] Cell viability and potency were assessed from % inhibition relative to the vehicle control, and IC50 dose curves were generated using GraphPad Prism."}},
  "note": "“Also recorded” adds a separate entry of the source.",
  "data": [
    {"substance": "30-hydroxygambogic acid [GA-OH]", "values": [
      {"measurement": "number of colonies", "setting": "SCC19 (HPV-)", "value": "did not exhibit significant reduction relative to their control except at high concentrations"},
      {"measurement": "number of colonies", "setting": "SCC104 (HPV+)", "value": "significantly and dose-dependently reduced"},
      {"measurement": "sensitization to photon radiation", "setting": "[1]", "value": "most sensitization in HPV+ cell lines; also recorded: less than that of CDDP but greater than cetuximab"},
      {"measurement": "G2-M arrest", "setting": "SCC47 (HPV+)", "value": "increased arrest at 24 hours as compared to radiation alone"},
      {"measurement": "potency and selectivity for HPV+ versus HPV- cells", "setting": "[2]", "value": "more potent and selective"},
      {"measurement": "cell growth inhibition, sensitivity of HPV+ versus HPV- cell lines", "setting": "[2]; MTT", "value": "displayed higher sensitivity"}
    ]}
  ]
}
